Tests used:
Assay type in all cases: in vivo
[1] = tested on: kochia (Kochia scoparia); assay: Test C preemergence, plant response rating
[2] = tested on: wild poinsettia (Euphorbia heterophylla); assay: Test C preemergence, plant response rating
[3] = tested on: barnyardgrass (Echinochloa crus-galli); assay: Test C preemergence, plant response rating; settings: Preemergence
[4] = tested on: surinam grass (Brachiaria decumbens); assay: Test C preemergence, plant response rating
[5] = tested on: galium (catchweed bedstraw, Galium aparine); assay: Test C preemergence, plant response rating
[6] = tested on: johnsongrass (Sorghum halepense); assay: Test C preemergence, plant response rating
[7] = tested on: oat, wild (wild oat Avena fatua); assay: Test C postemergence, plant response rating; settings: for Oat, Wild plant response rating: scale 0 to 100 (0 no effect, 100 complete control)
Outline: (§1)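 After sowing in loam–sand blend or silt loam, pots were sprayed preemergence; separately grown 1- to 4-leaf plants were sprayed postemergence. Following 13 to 15 d under greenhouse conditions, injury was rated visually on a 0 to 100 scale.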

[8] = tested on: blackgrass (Alopecurus myosuroides); assay: Test C postemergence, plant response rating; settings: for Plant response rating, Blackgrass: scale 0 to 100; for Blackgrass plant response rating: scale 0 to 100 (0 no effect, 100 complete control)
Outline: as §1

[9] = tested on: ragweed (common ragweed, Ambrosia elatior); assay: Test C postemergence, plant response rating; settings: for Ragweed plant response rating: scale 0 to 100 (0 no effect, 100 complete control)
Outline: as §1

[10] = tested on: morningglory (Ipomoea coccinea); assay: Test C postemergence, plant response rating; settings: for Morningglory plant response rating: scale 0 to 100 (0 no effect, 100 complete control)
Outline: as §1

[11] = tested on: velvetleaf (Abutilon theophrasti); assay: Test C postemergence, plant response rating
Outline: as §1

[12] = tested on: nutsedge, yellow (yellow nutsedge, Cyperus esculentus); assay: Test C postemergence, plant response rating; settings: for Nutsedge, Yellow plant response rating: scale 0 to 100 (0 no effect, 100 complete control)
Outline: as §1

[13] = tested on: ryegrass, Italian (Italian ryegrass, Lolium multiflorum); assay: Test C postemergence, plant response rating; settings: for Ryegrass, Italian plant response rating: scale 0 to 100 (0 no effect, 100 complete control)
Outline: as §1

[14] = tested on: wheat (winter wheat, Triticum aestivum); assay: Test C postemergence, plant response rating
Outline: as §1

[15] = tested on: lambsquarters (Chenopodium album); assay: Test C postemergence, plant response rating; settings: for Lambsquarters plant response rating: scale 0 to 100 (0 no effect, 100 complete control)
Outline: as §1

[16] = tested on: chickweed (common chickweed, Stellaria media); assay: Test C postemergence, plant response rating; settings: for Chickweed plant response rating: scale 0 to 100 (0 no effect, 100 complete control)
Outline: as §1

[17] = tested on: oat, wild (wild oat Avena fatua); assay: Test C preemergence, plant response rating
[18] = tested on: windgrass (Apera spica-venti); assay: Test C preemergence, plant response rating
[19] = tested on: pigweed, palmer (palmer pigweed, Amaranthus palmeri); assay: Test C preemergence, plant response rating
[20] = 125 g ai/ha, scale 0 to 100 (0 no effect, 100 complete control)

`CCCCC(=O)c1c(Br)cccc1Oc1ncc(Cl)cn1` [Compound 79] was tested, and the “Plant response rating, Kochia” value ([1]; 16 g ai/ha, scale 0 to 100) was 5, the “Plant response rating, Kochia” value ([1]; 31 g ai/ha, scale 0 to 100) was 90 and the “Plant response rating, Kochia” value ([1]; 62 g ai/ha, scale 0 to 100) was 90. For the same compound, the “Plant response rating, Kochia” value ([1]; 125 g ai/ha, scale of 0 to 100) was 100, the “Plant response rating, Poinsettia, Wild” value ([2]; 16 g ai/ha, scale 0 to 100) was 0 and the “Plant response rating, Poinsettia, Wild” value ([2]; 31 g ai/ha, scale 0 to 100) was 0. For the same compound, the “Plant response rating, Poinsettia, Wild” value ([2]; 62 g ai/ha, scale 0 to 100) was 10, the “Plant response rating, Poinsettia, Wild” value ([2]; 125 g ai/ha, scale of 0 to 100) was 40 and the “Plant response rating, Barnyardgrass” value ([3]; 62 g ai/ha, scale of 0 to 100) was 75. For the same compound, the “Plant response rating, Barnyardgrass” value ([3]; 125 g ai/ha, scale of 0 to 100) was 95, the “Plant response rating, Barnyardgrass” value ([3]; 16 g ai/ha, scale 0 to 100) was 5 and the “Plant response rating, Barnyardgrass” value ([3]; 31 g ai/ha, scale 0 to 100) was 60. The “Plant response rating, Surinam Grass” value ([4]; 16 g ai/ha, scale 0 to 100) was 5, the “Plant response rating, Surinam Grass” value ([4]; 31 g ai/ha, scale 0 to 100) was 30 and the “Plant response rating, Surinam Grass” value ([4]; 62 g ai/ha, scale 0 to 100) was 50. The “Plant response rating, Surinam Grass” value ([4]; 125 g ai/ha, scale of 0 to 100) was 85, the “Plant response rating, Galium” value ([5]; 16 g ai/ha, scale 0 to 100) was 0 and the “Plant response rating, Galium” value ([5]; 31 g ai/ha, scale 0 to 100) was 0. For the same compound, the “Plant response rating, Galium” value ([5]; 62 g ai/ha, scale of 0 to 100) was 70, the “Plant response rating, Galium” value ([5]; 125 g ai/ha, scale of 0 to 100) was 5 and the “Plant response rating, Johnsongrass” value ([6]; 16 g ai/ha, scale 0 to 100) was 0. The “Plant response rating, Johnsongrass” value ([6]; 31 g ai/ha, scale 0 to 100) was 5, the “Plant response rating, Johnsongrass” value ([6]; 62 g ai/ha, scale 0 to 100) was 50 and the “Plant response rating, Johnsongrass” value ([6]; 125 g ai/ha, scale of 0 to 100) was 70. For the same compound, the “Plant response rating, Oat, Wild” value ([7]; 16 g ai/ha, scale of 0 to 100) was 15, the “Plant response rating, Oat, Wild” value ([7]; 31 g ai/ha, scale 0 to 100) was 60 and the “Oat, Wild plant response rating” value ([7]; 62 g ai/ha) was 45. For the same compound, the “Oat, Wild plant response rating” value ([7]; 125 g ai/ha) was 35, the “Plant response rating, Blackgrass” value ([8]; 16 g ai/ha) was 20 and the “Plant response rating, Blackgrass” value ([8]; 31 g ai/ha) was 10. For the same compound, the “Blackgrass plant response rating” value ([8]; 62 g ai/ha) was 20, the “Blackgrass plant response rating” value ([8]; 125 g ai/ha) was 30 and the “Plant response rating, Ragweed” value ([9]; 16 g ai/ha, scale of 0 to 100) was 30. For the same compound, the “Plant response rating, Ragweed” value ([9]; 31 g ai/ha, scale 0 to 100) was 20, the “Ragweed plant response rating” value ([9]; 62 g ai/ha) was 75 and the “Ragweed plant response rating” value ([9]; 125 g ai/ha) was 65. For the same compound, the “Plant response rating, Morningglory” value ([10]; 16 g ai/ha, scale of 0 to 100) was 10, the “Plant response rating, Morningglory” value ([10]; 31 g ai/ha, scale 0 to 100) was 20 and the “Morningglory plant response rating” value ([10]; 62 g ai/ha) was 30. For the same compound, the “Morningglory plant response rating” value ([10]; 125 g ai/ha) was 30, the “Plant response rating, Velvetleaf” value ([11]; 16 g ai/ha, scale of 0 to 100) was 30 and the “Plant response rating, Velvetleaf” value ([11]; 31 g ai/ha, scale 0 to 100) was 75. For the same compound, the “Velvetleaf plant response rating” value [11, 20] was 90, the “Plant response rating, Nutsedge, Yellow” value ([12]; 16 g ai/ha, scale of 0 to 100) was 0 and the “Plant response rating, Nutsedge, Yellow” value ([12]; 31 g ai/ha, scale 0 to 100) was 5. For the same compound, the “Nutsedge, Yellow plant response rating” value ([12]; 62 g ai/ha) was 5, the “Nutsedge, Yellow plant response rating” value ([12]; 125 g ai/ha) was 5 and the “Plant response rating, Ryegrass, Italian” value ([13]; 16 g ai/ha, scale of 0 to 100) was 5. For the same compound, the “Plant response rating, Ryegrass, Italian” value ([13]; 31 g ai/ha, scale 0 to 100) was 30, the “Ryegrass, Italian plant response rating” value ([13]; 62 g ai/ha) was 25 and the “Ryegrass, Italian plant response rating” value ([13]; 125 g ai/ha) was 30. For the same compound, the “Plant response rating, Wheat” value ([14]; 16 g ai/ha, scale of 0 to 100) was 5, the “Plant response rating, Wheat” value ([14]; 31 g ai/ha, scale 0 to 100) was 5 and the “Wheat plant response rating” value [14, 20] was 15. For the same compound, the “Plant response rating, Lambsquarters” value ([15]; 16 g ai/ha, scale of 0 to 100) was 75, the “Plant response rating, Lambsquarters” value ([15]; 31 g ai/ha, scale 0 to 100) was 85 and the “Lambsquarters plant response rating” value ([15]; 62 g ai/ha) was 90. For the same compound, the “Lambsquarters plant response rating” value ([15]; 125 g ai/ha) was 100, the “Plant response rating, Chickweed” value ([16]; 16 g ai/ha, scale of 0 to 100) was 95 and the “Plant response rating, Chickweed” value ([16]; 31 g ai/ha, scale 0 to 100) was 90. The “Chickweed plant response rating” value ([16]; 62 g ai/ha) was 95, the “Chickweed plant response rating” value ([16]; 125 g ai/ha) was 98 and the “Plant response rating, Oat, Wild” value ([17]; 16 g ai/ha, scale 0 to 100) was 0. The “Plant response rating, Oat, Wild” value ([17]; 31 g ai/ha, scale 0 to 100) was 0, the “Plant response rating, Oat, Wild” value ([17]; 62 g ai/ha, scale 0 to 100) was 5 and the “Plant response rating, Oat, Wild” value ([17]; 125 g ai/ha, scale of 0 to 100) was 40. The “Plant response rating, Windgrass” value ([18]; 16 g ai/ha, scale 0 to 100) was 60, the “Plant response rating, Windgrass” value ([18]; 31 g ai/ha, scale 0 to 100) was 80 and the “Plant response rating, Windgrass” value ([18]; 62 g ai/ha, scale 0 to 100) was 100. The “Plant response rating, Windgrass” value ([18]; 125 g ai/ha, scale of 0 to 100) was 100, the “Plant response rating, Pigweed, Palmer” value ([19]; 16 g ai/ha, scale 0 to 100) was 75 and the “Plant response rating, Pigweed, Palmer” value ([19]; 31 g ai/ha, scale 0 to 100) was 85. The “Plant response rating, Pigweed, Palmer” value ([19]; 62 g ai/ha, scale 0 to 100) was 90 and the “Plant response rating, Pigweed, Palmer” value ([19]; 125 g ai/ha, scale of 0 to 100) was 90.
